According to patent US6254899A, “Plant extract compositions, method of preparation, and pharmaceutical compositions containing them” (Laboratoires Remilea, priority 1999, dated 2001):

Columns and labels:
[1] = Test of analgesic activity: phenyl benzoquinone (PBQ) induced abdominal cramps in mice; format: in vivo, mice (male); settings: aspirin 100 mg/kg
Protocol: 50 male mice of 20-24 g supplied by the company IFFA-CREDO (France) were divided into 5 batches. The products studied were administered: by oral route thirty minutes before injection of phenyl benzoquinone (PBQ): (PBQ 20 mg+alcohol 5 ml+water qsp 100 ml). by intraperitoneal route at the rate of 0.20 ml per mouse.
The products to be tested were suspended in the excipient HPMC (hydroxypropyl cellulose methyl).
The animals were treated as below: […]
4. Tanacetum parthenium 150 10 […]
Aspirin was used as the reference analgesic product.
PBQ induces abdominal cramps indicating the intensity of the pain. The number of cramps per mouse was measured 1 hr and 2 hrs after administration of the product tested (30 mn and 1 hr 30 minutes after injection of PBQ).
The results were expressed as the percentage: […]
Number of cramps of the control batch - number of cramps of
Number of cramps of the control batch

[2] = Test of anti-inflammatory activity: carragheenin-induced podal edema in rats; format: in vivo, rat (Ico male and female, Sprague Dawley)
Protocol: 1. Test of Anti-inflammatory Activity
Podal edema induced by carragheenin is used to evaulate the anti-inflammatory activity of the products tested.
The products were tested on Ico male rats and female rats (Sprague Dawley) of approximately 250 g provided by the company IFFA-CREDO.
The products tested were suspended in the hydroxypropyl methyl cellulose (HPMC).
A volume of 5 ml per kg of body weight was administered to the animals by oral route according to the protocol detained in the table below.
Batch Salix Tanacetum Copper Quantity Volume
no. alba parthenium gluconate of excipient administered
Batch / 900 mg / 15.0 ml) 5 ml/kg
The control animals received either the placebo (T+), i.e. solely the HPMC, or indomethacin (T-) by oral route.
The treatment took place two hours before the experiment. One hour after oral administration of the product to be tested, all the animals received 0.2 ml of a 2% solution of carragheenin (Satia) in a 0.9% solution of sodium chloride at by injection in the right back paw (T0).
The podal volume of each rat was measured using a plethysmometer. The podal edema of each animal was measured at times T0, T0 +60 minutes, T0 +120 minutes, T0 +240 minutes.
The results were expressed in average percentages of inflammation relative to the control values (T^+) before the treatment and at each of the measuring times as well as in the percentage reduction of the edema compared to a control before the treatment and against each of the measuring times.

Row | Structure (SMILES) | Reduction of number of abdominal cramps, 1 hr ([1]; 60 mins after administration, Salix alba 150 mg/kg) [%] | Reduction of number of abdominal cramps, 2 hrs ([1]; 120 mins after administration, Salix alba or Tanacetum parthenium 150 mg/kg) [%] | % change of inflammation compared with the control (T+), 1 hour ([2]; 1 hour, "-" reduction, "+" increase in inflammation) [%] | % change of inflammation compared with the control (T+), 2 hours ([2]; 2 hours, "-" reduction, "+" increase in inflammation) [%] | % change of inflammation compared with the control (T+), 4 hours ([2]; 4 hours, "-" reduction, "+" increase in inflammation) [%] | % inflammation after 1 hour ([2]; oral, 5 ml/kg, 1 hour) [%] | % inflammation after 2 hours ([2]; oral, 5 ml/kg, 2 hours) [%] | % inflammation after 4 hours ([2]; oral, 5 ml/kg, 4 hours) [%]
1 | CC(=O)Oc1ccccc1C(=O)O [aspirin] | 33 | 55 |  |  |  |  |  | 
2 | COc1ccc2c(c1)c(CC(=O)O)c(C)n2C(=O)c1ccc(Cl)cc1 [Indomethacin] |  |  | -16.74 | -36.7 | -50.38 | 38.34 | 51.85 | 71.38
